Activity calls are given as the source filed them. The calls are words filed in the database; no cut-off is given here.
Experiments:
Rattus norvegicus [1] = assay: Compound was evaluated for % decrease in hypothalamus norepinephrine in anesthetized spontaneously hypertensive rats(SHR) at 24 hours after administration of 35 mg/kg dose perorally; format: functional; details: route oral
Rattus norvegicus [2] = assay: Compound was evaluated for % decrease in heart norepinephrine in anesthetized spontaneously hypertensive rats(SHR) at 24 hours after administration of 35 mg/kg dose perorally; format: functional; details: route oral
Rattus norvegicus [3] = assay: Compound was evaluated for % decrease in adrenal epinephrine in anesthetized spontaneously hypertensive rats(SHR) at 24 hours after administration of 35 mg/kg dose perorally; format: functional; details: route oral
Rattus norvegicus [4] = assay: Systolic blood pressure (SBP) in anesthetized spontaneously hypertensive rats (SHR) before administration of 75 mg/kg dose perorally.; format: functional; parameters: unit: mmHg; details: route oral
Rattus norvegicus [5] = assay: Systolic blood pressure (SBP) in anesthetized spontaneously hypertensive rats(SHR) at 7.5 hours after administration of 75 mg/kg dose perorally; NS is not statistically significant.
Rattus norvegicus [6] = assay: Systolic blood pressure (SBP) in anesthetized spontaneously hypertensive rats(SHR) at 7.5 hours after administration of 75 mg/kg dose perorally; NS is not statistically significant
Rattus norvegicus [7] = assay: Systolic blood pressure (SBP) in anesthetized spontaneously hypertensive rats(SHR) at 7.5 hours after administration of 75 mg/kg dose perorally; format: functional; details: route oral
Adrenergic receptor beta [8] = biological target: T1, Adrenergic receptor beta (Rattus norvegicus, UniProt P18090+P10608+P26255)
Description: Inhibition constant from beta adrenergic receptor binding assay

Cavia porcellus = species: Cavia porcellus; assay: Inhibition of the isoproterenol response at a dose of 1 x 10e -4M in guinea pig; slight inhibition was found; format: functional, organism-based
Rattus norvegicus [9] = assay: Systolic blood pressure (SBP) in anesthetized spontaneously hypertensive rats(SHR) before administration of 35 mg/kg dose perorally; format: functional; parameters: unit not given here; details: route oral
Rattus norvegicus [10] = assay: Systolic blood pressure (SBP) in anesthetized spontaneously hypertensive rats(SHR) at 7.5 hours after administration of 35 mg/kg dose perorally; format: functional; details: route oral
Adrenergic receptor beta [11] = biological target: T1, Adrenergic receptor beta; assay: Inhibition constant obtained from beta adrenergic receptor binding assay; format: protein assay
Rattus norvegicus [12] = assay: Systolic blood pressure (SBP) in anesthetized spontaneously hypertensive rats(SHR) before administration of 30 mg/kg dose intravenously; format: functional; details: route intravenous
Rattus norvegicus [13] = assay: Systolic blood pressure (SBP) in anesthetized spontaneously hypertensive rats(SHR) at 7.5 hours after administration of 30 mg/kg dose intravenously; NS is not statistically significant; format: functional, organism-based; parameters: dose 30 mg/kg
Rattus norvegicus [14] = assay: % decrease in brain norepinephrine in anesthetized spontaneously hypertensive rats(SHR) at 24 hours after administration of 150 mg/kg dose perorally; details: route oral
Rattus norvegicus [15] = assay: % decrease in adrenal epinephrine in anesthetized spontaneously hypertensive rats(SHR) at 24 hours after administration of 150 mg/kg dose perorally; format: functional; details: route oral
Rattus norvegicus [16] = assay: % decrease in systolic blood pressure (SBP) in anesthetized spontaneously hypertensive rats(SHR) after administration of 150 mg/kg dose perorally; details: route oral
Rattus norvegicus [17] = assay: % decrease in heart norepinephrine in anesthetized spontaneously hypertensive rats(SHR) at 24 hours after administration of 150 mg/kg dose perorally; format: functional; details: route oral

In the case of CCCNCC(O)COc1ccc2c(=O)c(-c3ccccc3)c(-c3ccccc3)oc2c1 (centres undefined), the Decrease (Rattus norvegicus [1]) is reported as 12%, the Decrease (Rattus norvegicus [2]) is reported as 100% and the Decrease (Rattus norvegicus [3]) is reported as 10%.

CC(C)N(Cc1ccccc1)CC(O)COc1ccc2c(=O)cc(-c3ccccc3)oc2c1 (centres undefined) was tested, and the Systolic blood pressure (Rattus norvegicus [4]) was 200 and the “Decrease in Systolic blood pressure” value (Rattus norvegicus [5]) was “Not significant”.

NCC(O)COc1ccc2c(=O)cc(-c3ccccc3)oc2c1 (centres undefined) was tested, and the Systolic blood pressure (Rattus norvegicus [4]) was 187 and the “Decrease in Systolic blood pressure” value (Rattus norvegicus [6]) was “Not significant”.

CCCNCC(O)COc1ccc2c(=O)c(Cc3ccccc3)c(-c3ccccc3)oc2c1 (centres undefined) was tested, and the “Decrease in Systolic blood pressure” value (Rattus norvegicus [7]) was 14% and the Systolic blood pressure (Rattus norvegicus [4]) was 198.

With CCCNCC(COc1ccc2c(=O)cc(-c3ccccc3)oc2c1)OC(=O)c1ccccc1 (centres undefined) the “Decrease in Systolic blood pressure” value (Rattus norvegicus [7]) was 22.5% and the Systolic blood pressure (Rattus norvegicus [4]) was 187.

In the case of CC(C)NCC(O)COc1ccc2oc(-c3ccccc3)cc(=O)c2c1 (centres undefined), the Ki (Adrenergic receptor beta [8]) is reported as 2.2 µM, the “Decrease in Systolic blood pressure” value (Rattus norvegicus [7]) is reported as 12% and the Systolic blood pressure (Rattus norvegicus [4]) is reported as 199. For the same molecule, the Activity (Cavia porcellus) was “Weak activity”.

In the case of O=c1cc(-c2ccccc2)oc2cc(OCC(O)CNC3CCCCC3)ccc12 (centres undefined), the Systolic blood pressure (Rattus norvegicus [9]) is reported as 201, the “Decrease in Systolic blood pressure” value (Rattus norvegicus [10]) is reported as 20% and the Ki (Adrenergic receptor beta [11]) is reported as 5.5 µM.

In the case of O=c1cc(-c2ccccc2)oc2cc(OCC(O)CNC3CCS(=O)(=O)C3)ccc12 (centres undefined), the Systolic blood pressure (Rattus norvegicus [4]) is reported as 196 and the “Decrease in Systolic blood pressure” value (Rattus norvegicus [6]) is reported as “Not significant”.

With Cc1cc(=O)c2ccc(OCC(O)CNC(C)C)cc2o1 (centres undefined) the Ki (Adrenergic receptor beta [8]) was 23 µM, the Systolic blood pressure (Rattus norvegicus [4]) was 196 and the “Decrease in Systolic blood pressure” value (Rattus norvegicus [5]) was “inactive”.

In the case of CCCNCC(O)COc1cccc2oc(-c3ccccc3)cc(=O)c12 (centres undefined), the Systolic blood pressure (Rattus norvegicus [12]) is reported as 157 and the “Decrease in Systolic blood pressure” value (Rattus norvegicus [13]) is reported as “Not significant”.

CC(C)NCC(O)COc1cccc2ccccc12 (centres undefined) [PROPRANOLOL] was tested, and the Systolic blood pressure (Rattus norvegicus [4]) was 212 and the “Decrease in Systolic blood pressure” value (Rattus norvegicus [6]) was “inactive”.

For CC(C)NCC(O)COc1ccc2c(=O)cc(-c3ccccc3Cl)oc2c1 (centres undefined), the Systolic blood pressure (Rattus norvegicus [9]) was 192 and the “Decrease in Systolic blood pressure” value (Rattus norvegicus [10]) was 18%.

In the case of CC(C)NCC(O)COc1ccc2c(=O)c(-c3ccccc3)coc2c1 (centres undefined), the Decrease (Rattus norvegicus [14]) is reported as 37%, the Decrease (Rattus norvegicus [15]) is reported as 100% and the % decrease SBP (Rattus norvegicus [16]) is reported as 34%. For the same molecule, the Decrease (Rattus norvegicus [17]) was 100%.

O=c1cc(-c2ccccc2)oc2cc(O)ccc12 [7-HYDROXYFLAVONE] showed a Systolic blood pressure (Rattus norvegicus [4]) of 217.

With O=c1cc(-c2ccccc2)oc2cc(OCC(O)CNCc3ccccc3)ccc12 (centres undefined) the Systolic blood pressure (Rattus norvegicus [4]) was 223 and the “Decrease in Systolic blood pressure” value (Rattus norvegicus [5]) was “Not significant”.

With CC(C)NCC(O)COc1ccc2c(=O)cc(-c3cccc(Cl)c3)oc2c1 (centres undefined) the Systolic blood pressure (Rattus norvegicus [4]) was 200 and the “Decrease in Systolic blood pressure” value (Rattus norvegicus [5]) was “Not significant”.

CC(C)NCCCOc1ccc2c(=O)cc(-c3ccccc3)oc2c1 was tested, and the Systolic blood pressure (Rattus norvegicus [4]) was 204 and the “Decrease in Systolic blood pressure” value (Rattus norvegicus [6]) was “Not significant”.

O=c1cc(-c2ccccc2)oc2cc(OCC(O)CN3CCN(c4ccccc4)CC3)ccc12 (centres undefined) was tested, and the Systolic blood pressure (Rattus norvegicus [4]) was 217 and the “Decrease in Systolic blood pressure” value (Rattus norvegicus [5]) was “Not significant”.

CCCCNCC(O)COc1ccc2c(=O)cc(-c3ccccc3)oc2c1 (centres undefined) was tested, and the Systolic blood pressure (Rattus norvegicus [9]) was 202 and the “Decrease in Systolic blood pressure” value (Rattus norvegicus [10]) was 26%.
